Laboratory results published in patent publication US4046897A, “5-Mercaptopyridoxine alkanesulfonates and methods of use and pharmaceutical compositions” (Merck & Co., Inc., priority 1976, dated 1977).
Where a name gives a salt, the structure may show the parent alone.

Assay: Comparison of thermal stability of 5-MP salts (pure unformulated compound, colorimetric assay for intact thiol group)
Format: physicochemical
Conditions: for Thermal Stability % Remaining: pure unformulated salt
Protocol: Thus, in order to evaluate the relative stability of several salts of 5-mercaptopyridoxine, the test salts selected (i.e., the ethane-1,2-disulfonate, the phosphate, the sulfamate, the nitrate and the hydrochloride) were subjected to accelerated conditions of high temperature as the pure, unformulated, compound. The high temperature date obtained at 80° C. and at 105° C. is conventionally used in the pharmaceutical industry to screen compounds in as short a time as possible. Where a number of derivatives or salts are available, comparative data can be obtained and the test compounds can be ranked in an expected order of stability. The thermally stressed salts were assayed colorimetrically for intact thiol group. The ethanedisulfonate, hydrochloride and sulfamate salts also were subjected to NMR analysis to confirm the chemical analysis. The NMR data supports the chemical data.

| Thermal Stability % Remaining (80° C, 1 week, 10080 min, hydrochloride) [%] | Thermal Stability % Remaining (80° C, 3 weeks, 30240 min, hydrochloride) [%] | Thermal Stability % Remaining (105° C, 3 days, hydrochloride, 4320 min) [%] | Thermal Stability % Remaining (80° C, 1 week, 10080 min) [%] | Thermal Stability % Remaining (80° C, 3 weeks, 30240 min) [%] | Thermal Stability % Remaining (105° C, 3 days, 4320 min) [%] | Thermal Stability % Remaining (105° C, 7 days, 10080 min) [%] | relative thermal/chemical stability among 5-MP salts (in words) (at the temperatures employed (80° C and 105° C)) | SMILES |
| --- | --- | --- | --- | --- | --- | --- | --- | --- |
| 70.5 | 57.3 | 57.3 |  |  |  |  |  | Cc1ncc(CS)c(CO)c1O [Hydrochloride, 5-mercaptopyridoxine hydrochloride] |
|  |  |  | 101.0 | 100.2 | 97.3 | 99.4 | most stable salt | Cc1ncc(CS)c(CO)c1O [Ethanedisulfonate, Bis(2-methyl-3-hydroxy-4-hydroxymethyl-5-mercaptomethyl-pyridinium) ethane-1,2-disulfonate] |
|  |  |  | 94.0 | 75.7 | 13.0 | 8.8 |  | Cc1ncc(CS)c(CO)c1O [Sulfamate] |
|  |  |  |  |  | 93.0 | 58.0 |  | Cc1ncc(CS)c(CO)c1O [Phosphate] |
|  |  |  | 87.2 |  |  |  |  | Cc1ncc(CS)c(CO)c1O [Nitrate] |
